According to ChEMBL document CHEMBL1201862, “PubChem BioAssay data set” (2004):
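Protocol summary: plate cells (96-well), add compound at 5 concentrations, incubate 48 h, interpolate endpoints linearly. Here, GI50 denotes the concentration required for 50% inhibition of growth.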 Activity calls are given as the source filed them. No stated cut-off is given here; in the data, active = GI50 up to about 1.1 µM and inactive = higher.

Columns and labels:
Assay in all cases: inhibition of tumour cell growth, NCI panel, 48 h
SNB-75 = test system: SNB-75
SK-MEL-5 = test system: SK-MEL-5
IGROV-1 = test system: IGROV-1
SN12C = test system: SN12C
A549 = test system: A549
HL-60 = test system: HL-60
EKVX = test system: EKVX
A498 = test system: A498
HCT-15 = test system: HCT-15
HT-29 = test system: HT-29
U-251 = test system: U-251
MDA-MB-231 = test system: MDA-MB-231
KM12 = test system: KM12
MCF7 = test system: MCF7
OVCAR-4 = test system: OVCAR-4
SK-MEL-28 = test system: SK-MEL-28
TK-10 = test system: TK-10
SF-539 = test system: SF-539
SW-620 = test system: SW-620
PC-3 = test system: PC-3
NCI-H522 = test system: NCI-H522
HCT-116 = test system: HCT-116
M14 = test system: M14
HOP-92 = test system: HOP-92
ACHN = test system: ACHN
RXF 393 = test system: RXF 393
NCI-H226 = test system: NCI-H226
RPMI-8226 = test system: RPMI-8226
NCI/ADR-RES = test system: NCI/ADR-RES
UACC-257 = test system: UACC-257
T47D = test system: T47D
DU-145 = test system: DU-145
OVCAR-5 = test system: OVCAR-5
SNB-19 = test system: SNB-19
HCC 2998 = test system: HCC 2998
NCI-H460 = test system: NCI-H460
UACC-62 = test system: UACC-62
MDA-MB-435 = test system: MDA-MB-435
BT-549 = test system: BT-549
CAKI-1 = test system: CAKI-1
LOX IMVI = test system: LOX IMVI
SK-MEL-2 = test system: SK-MEL-2
CCRF-CEM = test system: CCRF-CEM
COLO 205 = test system: COLO 205
NCI-H23 = test system: NCI-H23
MOLT-4 = test system: MOLT-4
K562 = test system: K562
SF-268 = test system: SF-268
UO-31 = test system: UO-31
OVCAR-8 = test system: OVCAR-8
Malme-3M = test system: Malme-3M
SR = test system: SR
786-0 = test system: 786-0
Hs-578T = test system: Hs-578T
HOP-62 = test system: HOP-62
SF-295 = test system: SF-295
OVCAR-3 = test system: OVCAR-3
SK-OV-3 = test system: SK-OV-3

Measured: GI50

CC(C)C/C=C/C1=NN(c2cccc(S(=O)(=O)O)c2)C2(C1)SCC(=O)N2c1nc2ccccc2s1 (centres undefined)
inactive: SNB-75 97.5 µM | SK-MEL-5 64 µM | IGROV-1 36.8 µM | SN12C 31.9 µM | A549 89.1 µM | HL-60 29.9 µM | EKVX > 100 µM | A498 27.7 µM | HT-29 > 100 µM | U-251 30.1 µM | MDA-MB-231 38.9 µM | KM12 36.7 µM | MCF7 30.5 µM | OVCAR-4 61.7 µM | SK-MEL-28 > 100 µM | TK-10 34.4 µM | SF-539 61.4 µM | SW-620 96.6 µM | PC-3 40 µM | NCI-H522 19.8 µM | HCT-116 67.8 µM | M14 > 100 µM | HOP-92 > 100 µM | ACHN 72.4 µM | RXF 393 98.4 µM | NCI-H226 29.2 µM | RPMI-8226 21.6 µM | NCI/ADR-RES 71.6 µM | UACC-257 > 100 µM | T47D 5.43 µM | DU-145 44.2 µM | OVCAR-5 > 100 µM | SNB-19 50 µM | HCC 2998 > 100 µM | NCI-H460 38 µM | UACC-62 48.4 µM | MDA-MB-435 31.1 µM | BT-549 83.2 µM | CAKI-1 66.8 µM | LOX IMVI 26.8 µM | SK-MEL-2 35.2 µM | CCRF-CEM 23.3 µM | COLO 205 > 100 µM | NCI-H23 99.5 µM | MOLT-4 33.8 µM | K562 51.4 µM | SF-268 37.2 µM | UO-31 50.1 µM | OVCAR-8 66.2 µM | Malme-3M 93.1 µM | SR 25.2 µM | 786-0 21.3 µM | Hs-578T 56.8 µM
91.6 µM: HCT-15

CC[N+]1(C)CCC(O)(/C=C/c2ccc(Cl)c(Cl)c2)C(C(=O)/C=C/c2ccc(Cl)c(Cl)c2)C1 (centres undefined)
inactive: SNB-75 3.78 µM | SK-MEL-5 2.68 µM | IGROV-1 2.96 µM | SN12C 1.88 µM | A549 4.41 µM | HL-60 1.9 µM | EKVX 11.1 µM | A498 2.52 µM | HT-29 2.07 µM | U-251 1.77 µM | KM12 1.88 µM | MCF7 2.36 µM | SK-MEL-28 2.15 µM | HOP-62 2.49 µM | TK-10 2.43 µM | SF-539 3.03 µM | SW-620 1.91 µM | PC-3 2.18 µM | NCI-H522 1.77 µM | SF-295 4.14 µM | HCT-116 1.57 µM | HOP-92 1.7 µM | ACHN 1.98 µM | RXF 393 2.04 µM | NCI-H226 4.08 µM | RPMI-8226 2.17 µM | NCI/ADR-RES 2.51 µM | UACC-257 2.38 µM | T47D 1.8 µM | DU-145 2.71 µM | OVCAR-5 2.62 µM | SNB-19 6.11 µM | HCC 2998 1.95 µM | NCI-H460 2.99 µM | UACC-62 1.74 µM | MDA-MB-435 2.12 µM | BT-549 2.96 µM | CAKI-1 4.07 µM | LOX IMVI 1.39 µM | SK-MEL-2 3.86 µM | CCRF-CEM 1.38 µM | COLO 205 2.65 µM | NCI-H23 2.57 µM | MOLT-4 2.28 µM | K562 1.55 µM | SF-268 2.67 µM | OVCAR-3 3.09 µM | UO-31 1.83 µM | OVCAR-8 2.55 µM | Malme-3M 1.62 µM | SK-OV-3 3.41 µM | 786-0 1.81 µM | Hs-578T 2.91 µM
active: SR 0.406 µM
2.17 µM: HCT-15
